Results published in patent US20260315452A1, “PROTEASE INHIBITORS AND USES THEREOF” (priority 2023, published 2026).

Columns and labels:
SARS-CoV-2 3CLpro [1] = target: T1, SARS-CoV-2 3CLpro (Severe acute respiratory syndrome coronavirus 2, UniProt P0DTD1); experiment: biochemical; conditions: inhibition of SARS-CoV-2 3CLpro; 15 nM 3CLpro, 25 μM fluorogenic substrate, 37° C.; read-out: Inhibitory Activity (IC50)
[2] = Plasma protein binding (PPB) by equilibrium dialysis; assay type: in vitro ADME; conditions: human and mouse plasma, 4 hours, 37° C., versus Ref-2
Description: The binding of compounds Ref-2, 86, 97, 98 and 170 to human and mouse plasma were measured using equilibrium dialysis. A loading matrix was prepared by diluting of a 400 μM stock of each of the compounds in DMSO by the plasma matrix. To prepare the time zero (To) samples to be used for recovery determination, 50 μL of the loading matrix were transferred in triplicate to the sample collection plate, immediately matched with opposite blank buffer to obtain a final volume of 100 μL of 1:1 matrix/dialysis buffer (v/v) in each well, followed by the addition of 500 μL of stop solution (200 ng/mL of tolbutamide, 200 ng/mL of labetalol, and 50 ng/mL of metformin in acetonitrile) and then stored at 2-8° C. pending further processes along with other post-dialysis samples. To load the dialysis device, 150 μL of the loading matrix and 150 μL of the dialysis buffer were transferred to the donor side and the receiver side of each well, respectively. The dialysis plate was placed in a humidified incubator at 37° C. with 5% CO2 on a shaking platform that rotated slowly (about 100 rpm) for 4 hours, then 50 μL of samples were taken from both the buffer side and the matrix side, and transferred into new 96-well plates. Each sample was mixed with an equal volume of opposite blank buffer (or matrix) to reach a final volume of 100 μL, followed by the addition of 500 µL of stop solution. The mixture was vortexed and centrifuged at 4000 rpm for about 20 minutes, then […] of the supernatant of each sample was removed for LC-MS/MS analysis. The single blank samples were prepared by transferring 50 μL of blank matrix to a 96 well plate and adding 50 μL of blank PBS buffer to each well. The blank plasma must match the species of plasma used in the plasma side of the well. Then the matrix-matched samples were further processed by adding 500 μL of stop solution, following the same sample processing method as the dialysis samples. The % Unbound, % Bound and % Recovery were calculated using the following equations: […]
in which F is the analyte concentration or peak area ratio of analyte/internal standard on the buffer (receiver) side of the membrane, T is the analyte concentration or peak area ratio of analyte/internal standard on the matrix (donor) side of the membrane, and T0 is the analyte concentration or the peak area ratio of analyte/internal standard in the loading matrix sample at time zero.

SARS-CoV-2 3CLpro [3] = target: T1, SARS-CoV-2 3CLpro; experiment: Co-crystal structure with SARS-CoV-2 3CLpro; assay type: binding; conditions: co-crystal with SARS-CoV-2 3CLpro
SARS-CoV-2 = experiment: Anti-SARS-CoV-2 activity in A549 cells expressing the human ACE2 receptor (inhibition of SARS-CoV-2 replication); assay type: cell-based; conditions: for EC50: Severe acute respiratory syndrome coronavirus 2, A549-ACE2, 24 h, read-out: Antiviral Activity (EC50); for antiviral potency in A549 cells in comparison with compound Ref-2: versus Ref-2 (FIG. 7)
[4] = system: CYP1A2, CYP2C9, CYP2C19, CYP2D6 and CYP3A4; experiment: CYP inhibition evaluation in human liver microsomes; assay type: in vitro ADME; conditions: CYP1A2, 2C9, 2C19, 2D6, 3A4, up to 50 μM
Description: 20 μL of the substrate solutions of CYP1A2, CYP2C9, CYP2C19, CYP2D6 and CYP3A4 were each mixed with […] of the test compounds (final concentrations: 50 μM, 15 μM, 5 μM, 1.5 μM, 0.5 μM, 0.15 μM, 0.05 μM, 0 μM), followed by the addition of 158 μL of the HLM (Human liver microsome) working solution. Each of the mixtures was incubated at 37° C. for 10 minutes, and then mixed with 20 μL of NADPH cofactor, followed by incubation at 37° C. for additional 10 minutes. The reactions were terminated by adding 400 μL cold stop solution (200 ng/mL Tolbutamide and Labetalol in ACN). The samples are centrifuged at 4000 rpm for 20 minutes to precipitate protein. Next, 200 μL of the supernatant of each sample was transferred to 100 μL HPLC water and shaken for 10 minutes, and then analyzed by LC/MS/MS.

Omicron SARS-CoV-2 = conditions: FIG. 8, with Ref-2
SARS-CoV-2 3CLpro [5] = target: T1, SARS-CoV-2 3CLpro; assay type: binding; conditions: ITC, 25° C., pH 7.4; versus Ref-2 (compound P2)

CNC(=O)c1cc(Cl)cc([N+](=O)[O-])c1N[C@H]1CN(C(=O)c2cncc3cccnc23)CCC1(F)F [Compound 98, (S)-5-chloro-2-((4,4-difluoro-1-(1,6-naphthyridine-8-carbonyl)piperidin-3-yl)amino)-N-methyl-3-nitrobenzamide]
IC50 (SARS-CoV-2 3CLpro [1]): < 100 nM | free PPB ratio in comparison with compound Ref-2 [2]: better free PPB ratios | binding site/mode in crystal structure (SARS-CoV-2 3CLpro [3]): bind to 3CLpro similar to that of Compound 19 | EC50 (SARS-CoV-2): < 100 nM | effect on different CYP isoforms [4]: little effect on different CYP isoforms | activity against Omicron SARS-CoV-2 in Caco-2 cells (Omicron SARS-CoV-2): stronger activity against Omicron SARS-CoV-2

CNC(=O)c1cc(Br)cc([N+](=O)[O-])c1N[C@H]1CN(C(=O)c2cncc3ccccc23)CCC1(F)F [Compound 19, (S)-5-bromo-2-((4,4-difluoro-1-(isoquinoline-4-carbonyl)piperidin-3-yl)amino)-N-methyl-3-nitrobenzamide]
IC50 (SARS-CoV-2 3CLpro [1]): < 100 nM | binding site/mode in crystal structure (SARS-CoV-2 3CLpro [3]): bound into the catalytic pocket of 3CLpro | antiviral potency in A549 cells in comparison with compound Ref-2 (SARS-CoV-2): better antiviral potency | EC50 (SARS-CoV-2): < 100 nM | binding affinity (dissociation constant, Kd) in comparison with compound Ref-2 (SARS-CoV-2 3CLpro [5]): higher binding affinity

CNC(=O)c1cc(Cl)cc([N+](=O)[O-])c1N[C@H]1CN(C(=O)c2cncc3ccncc23)CCC1(F)F [Compound 97, (S)-5-chloro-2-((4,4-difluoro-1-(2,6-naphthyridine-4-carbonyl)piperidin-3-yl)amino)-N-methyl-3-nitrobenzamide]
IC50 (SARS-CoV-2 3CLpro [1]): < 100 nM | free PPB ratio in comparison with compound Ref-2 [2]: better free PPB ratios | effect on different CYP isoforms [4]: little effect on different CYP isoforms

O=C(NC1CC(F)(F)C1)c1cc(Br)cc([N+](=O)[O-])c1N[C@H]1CN(C(=O)c2cncc3ccccc23)CC12CC2 [Compound 30, (R)-5-bromo-N-(3,3-difluorocyclobutyl)-2-((5-(isoquinoline-4-carbonyl)-5-azaspiro[2.4]heptan-7-yl)amino)-3-nitrobenzamide]
IC50 (SARS-CoV-2 3CLpro [1]): < 100 nM | antiviral potency in A549 cells in comparison with compound Ref-2 (SARS-CoV-2): better antiviral potency | EC50 (SARS-CoV-2): < 100 nM | binding affinity (dissociation constant, Kd) in comparison with compound Ref-2 (SARS-CoV-2 3CLpro [5]): higher binding affinity

CNC(=O)c1cc(Cl)cc([N+](=O)[O-])c1N[C@H]1CN(C(=O)c2cncc3cccnc23)CC[C@@H]1F [Compound 170, 5-chloro-2-(((3S, 4S)-4-fluoro-1-(1,6-naphthyridine-8-carbonyl)piperidin-3-yl)amino)-N-methyl-3-nitrobenzamide]
IC50 (SARS-CoV-2 3CLpro [1]): < 100 nM | free PPB ratio in comparison with compound Ref-2 [2]: better free PPB ratios | effect on different CYP isoforms [4]: little effect on different CYP isoforms
